Consider two compounds from paper doi:10.1101/2023.05.30.542953v1 (biorxiv, 2023).

The structures appear in SMILES notation.

This experiment deals with LhCE. Briefly: UV-Vis Michaelis-Menten hydrolysis assay. It is filed as biochemical, Lactobacillus helveticus. Conditions: 50 mM HEPES pH 8, 21 °C, 10 nM enzyme.

In the case of `O=C(/C=C/c1ccc(O)c(O)c1)O[C@@H]1C[C@](O)(C(=O)O)C[C@@H](O)[C@H]1O` [chlorogenic acid], the Km amounted to 147 ± 41 µM.
`CCOC(=O)/C=C/c1ccc(O)c(OC)c1` [ethyl ferulate]: the Km (substrate stock in 5% ethanol) came out at 386 ± 46 µM.

For orientation: Km means the substrate concentration at which the rate is half of its maximum.
